The record followed here is PubChem BioAssay AID328 (DTP/NCI, 2004).

The test has as its system BDF1 mice, P388 leukemia ip, median survival T/C. Briefly: NCI In Vivo Anticancer Drug Screen. Data for tumor model P388 Leukemia (intraperitoneal) in B6D2F1 (BDF1) mice. Particulars: endpoint: median survival time, higher = longer survival. In a few lines:
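Read-out is survival of treated animals expressed relative to the vehicle group, as a T/C ratio.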

[1] abbreviates: dose: 50.0 mg/kg/injection, schedule: Q01DX009 (ip), vehicle: saline with Tween-80.
The mark [2] stands for this setting: dose: 200.0 mg/kg/injection, schedule: Q01DX009 (ip), vehicle: saline with Tween-80.
Setting [3] is: dose: 100.0 mg/kg/injection, schedule: Q01DX009 (ip), vehicle: saline with Tween-80.
Where [4] appears, read: dose: 200.0 mg/kg/injection, schedule: Q04DX003 (ip), vehicle: saline with Tween-80.
[5] abbreviates: dose: 400.0 mg/kg/injection, schedule: Q04DX003 (ip), vehicle: saline with Tween-80.
[6] abbreviates: dose: 100.0 mg/kg/injection, schedule: Q04DX003 (ip), vehicle: saline with Tween-80.
[7] abbreviates: dose: 100.0 mg/kg/injection, schedule: Q01DX009 (ip), vehicle: Klucel (hydroxypropylcellulose) (HPC).
Where [8] appears, read: dose: 200.0 mg/kg/injection, schedule: Q01DX009 (ip), vehicle: Klucel (hydroxypropylcellulose) (HPC).
[9] abbreviates: dose: 400.0 mg/kg/injection, schedule: Q01DX009 (ip), vehicle: Klucel (hydroxypropylcellulose) (HPC).
The mark [10] stands for this setting: dose: 50.0 mg/kg/injection, schedule: Q01DX009 (ip), vehicle: Klucel (hydroxypropylcellulose) (HPC).

“And” between values parts separate entries of the source, which are not always exact repeats. Equal entries are not always repeated. Inconclusive results and toxic doses are left out.

For `C=CC(=O)NCNC(=O)C=C`, the T/C is, setting by setting: (dose: 132.0 mg/kg/injection, schedule: Q04DX003 (ip), vehicle: saline with Tween-80) 118 % of control; (dose: 300.0 mg/kg/injection, schedule: Q04DX003 (ip), vehicle: saline with Tween-80) 222 % of control.

Regarding `c1ccc(CN2C3Oc4ccccc4C2Oc2ccccc23)cc1`, the T/C under setting [1] was 94 % of control and the T/C under setting [2] was 87 % of control.

Turning to `COC(=O)NC1C(C)C=CC(C)C1I` (configuration not stated), the T/C by setting is: under setting [3], 95 % of control; under setting [2], 113 % of control; under setting [4], 105 % of control; (dose: 400.0 mg/kg/injection, schedule: Q01DX009 (ip), vehicle: saline with Tween-80) 100 % of control; under setting [5], 110 % of control.

On to `S=C(S)N1CCOCC1`, for which the T/C is, setting by setting: (dose: 100.0 mg/kg/injection, schedule: Q01DX009 (ip), vehicle: saline) 91 % of control; (dose: 100.0 mg/kg/injection, schedule: Q04DX003 (ip), vehicle: saline) 100 % of control; (dose: 200.0 mg/kg/injection, schedule: Q01DX009 (ip), vehicle: saline) 100 % of control; (dose: 200.0 mg/kg/injection, schedule: Q04DX003 (ip), vehicle: saline) 95 % of control; (dose: 400.0 mg/kg/injection, schedule: Q01DX009 (ip), vehicle: saline) 95 % of control; (dose: 400.0 mg/kg/injection, schedule: Q04DX003 (ip), vehicle: saline) 86 % of control.

`ClCCOC(OCCCl)OCCCl`: the T/C by setting is: (dose: 25.0 mg/kg/injection, schedule: Q01DX009 (ip), vehicle: saline with Tween-80) 113 % of control; under setting [1], 109 % of control; under setting [6], 95 % of control.

For `C#CCOC(=O)Nc1cccc2ccccc12`, the T/C is 100 % of control under setting [7]; 100 % of control (dose: 100.0 mg/kg/injection, schedule: Q04DX003 (ip), vehicle: Klucel (hydroxypropylcellulose) (HPC)); 110 % of control under setting [8]; 100 % of control (dose: 200.0 mg/kg/injection, schedule: Q04DX003 (ip), vehicle: Klucel (hydroxypropylcellulose) (HPC)); 120 % of control under setting [9]; 109 % of control (dose: 400.0 mg/kg/injection, schedule: Q04DX003 (ip), vehicle: Klucel (hydroxypropylcellulose) (HPC)).

Take `CSc1cccc(NC(=O)OCCOc2ccc(-c3ccccc3)cc2)c1`: the T/C runs as follows: (dose: 12.5 mg/kg/injection, schedule: Q01DX009 (ip), vehicle: Klucel (hydroxypropylcellulose) (HPC)) 109 % of control; (dose: 25.0 mg/kg/injection, schedule: Q01DX009 (ip), vehicle: Klucel (hydroxypropylcellulose) (HPC)) 105 % of control; under setting [10], 111 % of control.

For the molecule `C1=CCC(C2OCC3(CO2)COC(C2CC=CCC2)OC3)CC1` (configuration not stated), the T/C by setting is: under setting [7], 96 % of control; under setting [8], 88 % of control; under setting [9], 88 % of control.

`C=CCSc1nc2ccccc2c(=O)n1-c1cc(OC)c(Cl)cc1OC`: the T/C under setting [10] is 88 % of control and the T/C under setting [7] is 96 % of control.

Take `CCOC1OCN(c2ccc(OC)cc2)CC1(C)C` (configuration not stated): the T/C is 98 % of control and 100 % of control under setting [1]; 113 % of control and 114 % of control under setting [3]; 116 % of control and 124 % of control under setting [2].

Consider `CCCCNC(C)(C)C(SSSC(c1cccs1)C(C)(C)NCCCC)c1cccs1` (configuration not stated), for which the T/C by setting is: (dose: 44.0 mg/kg/injection, schedule: Q04DX003 (ip), vehicle: saline with Tween-80) 113 % of control; under setting [1], 118 % of control; (dose: 66.0 mg/kg/injection, schedule: Q04DX003 (ip), vehicle: saline with Tween-80) 100 % of control; under setting [3], 122 % of control; under setting [6], 118 % of control; (dose: 150.0 mg/kg/injection, schedule: Q04DX003 (ip), vehicle: saline with Tween-80) 109 % of control. Moreover, the T/C by setting is: under setting [2], 118 % of control; under setting [4], 118 % of control; under setting [5], 122 % of control.

`CSc1nnc(-c2ccncc2)s1`: the T/C is, setting by setting: (dose: 50.0 mg/kg/injection, schedule: Q01DX001 (ip), vehicle: saline) 100 % of control; (dose: 100.0 mg/kg/injection, schedule: Q01DX001 (ip), vehicle: saline) 100 % of control; (dose: 200.0 mg/kg/injection, schedule: Q01DX001 (ip), vehicle: saline) 100 % of control.

Turning to `O=C1NN(c2ccccc2)C(=O)/C1=C\c1ccccc1O`, the T/C (dose: 350.0 mg/kg/injection, schedule: Q01DX009 (ip), vehicle: saline with Tween-80) is 97 % of control.

`COc1cc2cc(c1Cl)N(C)C(=O)/C=C/C1(C)OC1C(C)C1CC(O)(NC(=O)O1)C(OC)C=C/C=C(\C)C2` (configuration not stated): the T/C runs as follows: (dose: 0.2 micrograms/kg/injection, schedule: Q01DX009 (ip), vehicle: saline + alcohol) 90 % of control; (dose: 0.4 micrograms/kg/injection, schedule: Q01DX009 (ip), vehicle: saline + alcohol) 90 % of control; (dose: 0.8 micrograms/kg/injection, schedule: Q01DX009 (ip), vehicle: saline + alcohol) 90 % of control; (dose: 1.6 micrograms/kg/injection, schedule: Q01DX009 (ip), vehicle: saline + alcohol) 90 % of control; (dose: 3.1 micrograms/kg/injection, schedule: Q01DX009 (ip), vehicle: saline + alcohol) 90 % of control; (dose: 100.0 micrograms/kg/injection, schedule: Q01DX009 (ip), vehicle: saline + alcohol) 110 % of control.

As for `CCCn1c(=S)[nH]c2ccccc2c1=O`, the T/C runs as follows: (dose: 100.0 mg/kg/injection, schedule: Q01DX001 (ip), vehicle: Klucel (hydroxypropylcellulose) (HPC)) 100 % of control; (dose: 200.0 mg/kg/injection, schedule: Q01DX001 (ip), vehicle: Klucel (hydroxypropylcellulose) (HPC)) 100 % of control; (dose: 400.0 mg/kg/injection, schedule: Q01DX001 (ip), vehicle: Klucel (hydroxypropylcellulose) (HPC)) 100 % of control.

For `Cc1cccc2c(Nc3ccc(NS(C)(=O)=O)cc3)c3ccccc3nc12`, the T/C (dose: 0.88 mg/kg/injection, schedule: Q01DX009 (ip), vehicle: saline with Tween-80) was 123 % of control; the T/C (dose: 2.93 mg/kg/injection, schedule: Q04DX003 (ip), vehicle: saline with Tween-80) was 118 % of control; the T/C (dose: 3.0 mg/kg/injection, schedule: Q01DX009 (ip), vehicle: saline with Tween-80) was 153 % of control; the T/C (dose: 5.0 mg/kg/injection, schedule: Q01DX009 (ip), vehicle: saline with Tween-80) was 166 % of control; the T/C (dose: 10.0 mg/kg/injection, schedule: Q01DX009 (ip), vehicle: saline with Tween-80) was 203 % of control; the T/C (dose: 20.0 mg/kg/injection, schedule: Q01DX009 (ip), vehicle: saline with Tween-80) is 197 % of control. Also, the T/C was 150 % of control (dose: 20.0 mg/kg/injection, schedule: Q04DX003 (ip), vehicle: saline with Tween-80); 168 % of control (dose: 22.0 mg/kg/injection, schedule: Q04DX003 (ip), vehicle: saline with Tween-80); 154 % of control (dose: 30.0 mg/kg/injection, schedule: Q04DX003 (ip), vehicle: saline with Tween-80); 181 % of control (dose: 33.0 mg/kg/injection, schedule: Q04DX003 (ip), vehicle: saline with Tween-80); 245 % of control (dose: 50.0 mg/kg/injection, schedule: Q04DX003 (ip), vehicle: saline with Tween-80); 259 % of control (dose: 75.0 mg/kg/injection, schedule: Q04DX003 (ip), vehicle: saline with Tween-80). For the same molecule, the T/C is 204 % of control under setting [6] and 272 % of control under setting [4].

For the molecule `CCCn1cnc2c(=S)nc[nH]c21`, the T/C runs as follows: under setting [3], 108 % of control; under setting [6], 109 % of control; under setting [4], 118 % of control; under setting [5], 113 % of control.

Take `O=S1(=O)N2CN3CN(C2)CN1C3`: the T/C by setting is: (dose: 12.5 mg/kg/injection, schedule: Q04DX003 (ip), vehicle: Klucel (hydroxypropylcellulose) (HPC)) 121 % of control; (dose: 50.0 mg/kg/injection, schedule: Q04DX003 (ip), vehicle: Klucel (hydroxypropylcellulose) (HPC)) 105 % of control.
